Assay results as given in PubChem BioAssay (NCI).
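Briefly, cells in 96-well plates were exposed to five compound concentrations for 48 h, and endpoints were estimated by linear interpolation. GI50 = concentration required for 50% inhibition of growth. Definition used: TGI = concentration required for complete inhibition of growth.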

Legend:
Assay in all cases: inhibition of tumour cell growth, NCI panel, 48 h
CCRF-CEM leukemia = test system: CCRF-CEM leukemia
SNB-19 CNS = test system: SNB-19 CNS
OVCAR-4 ovarian = test system: OVCAR-4 ovarian
OVCAR-5 ovarian = test system: OVCAR-5 ovarian
HOP-62 NSCLC = test system: HOP-62 NSCLC
MDA-MB-435 = test system: MDA-MB-435
SNB-75 CNS = test system: SNB-75 CNS
SK-OV-3 ovarian = test system: SK-OV-3 ovarian
A498 renal = test system: A498 renal
OVCAR-3 ovarian = test system: OVCAR-3 ovarian
UO-31 renal = test system: UO-31 renal
HT29 colon = test system: HT29 colon
NCI-H460 lung = test system: NCI-H460 lung
NCI-H226 lung = test system: NCI-H226 lung
HOP-92 NSCLC = test system: HOP-92 NSCLC
HS 578T breast = test system: HS 578T breast
COLO 205 colon = test system: COLO 205 colon
HCT-15 colon = test system: HCT-15 colon
ACHN renal = test system: ACHN renal
SW-620 colon = test system: SW-620 colon
UACC-62 melanoma = test system: UACC-62 melanoma
RXF 393 renal = test system: RXF 393 renal
EKVX NSCLC = test system: EKVX NSCLC
M14 melanoma = test system: M14 melanoma
DU-145 prostate = test system: DU-145 prostate
CAKI-1 renal = test system: CAKI-1 renal
U251 CNS = test system: U251 CNS
A549 NSCLC = test system: A549 NSCLC
SF-539 CNS = test system: SF-539 CNS
MCF7 breast = test system: MCF7 breast
HL-60(TB) leukemia = test system: HL-60(TB) leukemia
TK-10 renal = test system: TK-10 renal
MDA-MB-231 breast = test system: MDA-MB-231 breast
SK-MEL-28 melanoma = test system: SK-MEL-28 melanoma
SN12C renal = test system: SN12C renal
HCT-116 colon = test system: HCT-116 colon
UACC-257 melanoma = test system: UACC-257 melanoma
786-0 renal = test system: 786-0 renal
HCC-2998 colon = test system: HCC-2998 colon
MDA-MB-468 breast = test system: MDA-MB-468 breast
LOX IMVI melanoma = test system: LOX IMVI melanoma
KM12 colon = test system: KM12 colon
SR leukemia = test system: SR leukemia
T-47D breast = test system: T-47D breast
IGROV1 ovarian = test system: IGROV1 ovarian
RPMI-8226 leukemia = test system: RPMI-8226 leukemia
MOLT-4 leukemia = test system: MOLT-4 leukemia
OVCAR-8 ovarian = test system: OVCAR-8 ovarian
MALME-3M melanoma = test system: MALME-3M melanoma
BT-549 breast = test system: BT-549 breast
NCI-H23 lung = test system: NCI-H23 lung
SF-295 CNS = test system: SF-295 CNS
SK-MEL-2 melanoma = test system: SK-MEL-2 melanoma
SF-268 CNS = test system: SF-268 CNS
NCI-H522 lung = test system: NCI-H522 lung
SK-MEL-5 melanoma = test system: SK-MEL-5 melanoma
PC-3 prostate = test system: PC-3 prostate
K-562 leukemia = test system: K-562 leukemia

## CN1CCc2c(sc3ncnc(N/N=C/c4ccc(Cl)cc4Cl)c23)C1
CCRF-CEM leukemia
  GI50: 2.45 µM
  TGI: 12.2 µM
SNB-19 CNS
  GI50: 4.01 µM
  TGI: > 100 µM
OVCAR-4 ovarian
  GI50: 1.79 µM
  TGI: 3.81 µM
OVCAR-5 ovarian
  GI50: 2.84 µM
  TGI: 11.2 µM
HOP-62 NSCLC
  GI50: 3.34 µM
  TGI: 16.9 µM
MDA-MB-435
  GI50: 2.11 µM
  TGI: 5.44 µM
SNB-75 CNS
  GI50: 1.54 µM
  TGI: 4.2 µM
SK-OV-3 ovarian
  GI50: 3.04 µM
  TGI: 12.5 µM
A498 renal
  GI50: 3.22 µM
  TGI: 12.3 µM
OVCAR-3 ovarian
  GI50: 1.34 µM
  TGI: 2.88 µM
UO-31 renal
  GI50: 1.47 µM
  TGI: 2.83 µM
HT29 colon
  GI50: 2.13 µM
  TGI: 4.91 µM
NCI-H460 lung
  GI50: 3.2 µM
  TGI: 13.3 µM
NCI-H226 lung
  GI50: 2.11 µM
  TGI: 8.21 µM
HOP-92 NSCLC
  GI50: 1.95 µM
  TGI: 5.96 µM
HS 578T breast
  GI50: 3.18 µM
  TGI: 27.3 µM
COLO 205 colon
  GI50: 1.66 µM
  TGI: 3.41 µM
HCT-15 colon
  GI50: 2.95 µM
  TGI: 13.7 µM
ACHN renal
  GI50: 1.88 µM
  TGI: 3.97 µM
SW-620 colon
  GI50: 1.91 µM
  TGI: 4.34 µM
UACC-62 melanoma
  GI50: 1.7 µM
  TGI: 3.67 µM
RXF 393 renal
  GI50: 2.1 µM
  TGI: 4.95 µM
EKVX NSCLC
  GI50: 10.8 µM
  TGI: > 100 µM
M14 melanoma
  GI50: 1.71 µM
  TGI: 3.45 µM
DU-145 prostate
  GI50: 6.47 µM
  TGI: > 100 µM
CAKI-1 renal
  GI50: 1.8 µM
  TGI: 3.87 µM
U251 CNS
  GI50: 1.92 µM
  TGI: 4.31 µM
A549 NSCLC
  GI50: 3.73 µM
  TGI: 16.9 µM
SF-539 CNS
  GI50: 1.81 µM
  TGI: 3.28 µM
MCF7 breast
  GI50: 2.36 µM
  TGI: 14.7 µM
HL-60(TB) leukemia
  GI50: 2.12 µM
  TGI: 6.11 µM
TK-10 renal
  GI50: 2.53 µM
  TGI: 6.36 µM
MDA-MB-231 breast
  GI50: 1.93 µM
  TGI: 4.71 µM
SK-MEL-28 melanoma
  GI50: 2.04 µM
  TGI: 5.37 µM
SN12C renal
  GI50: 2.43 µM
  TGI: 6.7 µM
HCT-116 colon
  GI50: 3.04 µM
  TGI: 11.4 µM
UACC-257 melanoma
  GI50: 2.86 µM
  TGI: 9.96 µM
786-0 renal
  GI50: 1.77 µM
  TGI: 3.26 µM
HCC-2998 colon
  GI50: 3.69 µM
  TGI: 15.3 µM
MDA-MB-468 breast
  GI50: 1.52 µM
  TGI: 3.32 µM
LOX IMVI melanoma
  GI50: 1.49 µM
  TGI: 2.93 µM
KM12 colon
  GI50: 4.3 µM
  TGI: 25.7 µM
SR leukemia
  GI50: 2.27 µM
  TGI: 9.19 µM
T-47D breast
  GI50: 2.1 µM
  TGI: 6.59 µM
IGROV1 ovarian
  GI50: 6.89 µM
  TGI: > 100 µM
RPMI-8226 leukemia
  GI50: 2.51 µM
  TGI: 11.8 µM
MOLT-4 leukemia
  GI50: 2.9 µM
  TGI: 18.4 µM
OVCAR-8 ovarian
  GI50: 2.38 µM
  TGI: 7.62 µM
MALME-3M melanoma
  GI50: 1.9 µM
  TGI: 3.94 µM
BT-549 breast
  GI50: 3.97 µM
  TGI: 16 µM
NCI-H23 lung
  GI50: 2.81 µM
  TGI: 10.7 µM
SF-295 CNS
  GI50: 2.3 µM
  TGI: 8.18 µM
SK-MEL-2 melanoma
  GI50: 3.59 µM
  TGI: 13.9 µM
SF-268 CNS
  GI50: 4.64 µM
  TGI: > 100 µM
NCI-H522 lung
  GI50: 3.38 µM
  TGI: 13.3 µM
SK-MEL-5 melanoma
  GI50: 1.66 µM
  TGI: 3.72 µM
PC-3 prostate
  GI50: 3.96 µM
  TGI: > 100 µM

## O=C(/C=C/c1cccc(OCc2ccc(F)cc2)c1)c1nc2ccccc2[nH]1
CCRF-CEM leukemia
  GI50: 10.9 µM
  TGI: > 100 µM
SNB-19 CNS
  GI50: 25.3 µM
  TGI: > 100 µM
OVCAR-4 ovarian
  GI50: 66.5 µM
  TGI: > 100 µM
OVCAR-5 ovarian
  GI50: 29.3 µM
  TGI: > 100 µM
HOP-62 NSCLC
  GI50: 41.5 µM
  TGI: > 100 µM
MDA-MB-435
  GI50: 21.2 µM
  TGI: 59.9 µM
SNB-75 CNS
  GI50: 34.2 µM
  TGI: > 100 µM
SK-OV-3 ovarian
  GI50: > 100 µM
  TGI: > 100 µM
A498 renal
  GI50: > 100 µM
  TGI: > 100 µM
OVCAR-3 ovarian
  GI50: 13.4 µM
  TGI: 37.6 µM
UO-31 renal
  GI50: 13.4 µM
  TGI: 29 µM
HT29 colon
  GI50: 18.4 µM
  TGI: 40.1 µM
NCI-H460 lung
  GI50: 34.8 µM
  TGI: > 100 µM
NCI-H226 lung
  GI50: 51 µM
  TGI: > 100 µM
HOP-92 NSCLC
  GI50: 8.64 µM
  TGI: 67.5 µM
HS 578T breast
  GI50: 25.9 µM
  TGI: 95.7 µM
COLO 205 colon
  GI50: 39.8 µM
  TGI: > 100 µM
HCT-15 colon
  GI50: 13 µM
  TGI: 28.6 µM
ACHN renal
  GI50: 47 µM
  TGI: > 100 µM
SW-620 colon
  GI50: 12.2 µM
  TGI: 34.3 µM
UACC-62 melanoma
  GI50: 18.7 µM
  TGI: > 100 µM
RXF 393 renal
  GI50: 15 µM
  TGI: 31.2 µM
EKVX NSCLC
  GI50: 41.3 µM
  TGI: > 100 µM
M14 melanoma
  GI50: 25.5 µM
  TGI: 83.6 µM
DU-145 prostate
  GI50: 29.5 µM
  TGI: > 100 µM
CAKI-1 renal
  GI50: 24.5 µM
  TGI: > 100 µM
U251 CNS
  GI50: 13.5 µM
  TGI: 35.7 µM
A549 NSCLC
  GI50: 65.1 µM
  TGI: > 100 µM
SF-539 CNS
  GI50: 17.6 µM
  TGI: 32.2 µM
MCF7 breast
  GI50: 4.52 µM
  TGI: 32.5 µM
HL-60(TB) leukemia
  GI50: 19.5 µM
  TGI: 62.4 µM
TK-10 renal
  GI50: 35.1 µM
  TGI: > 100 µM
MDA-MB-231 breast
  GI50: 18.4 µM
  TGI: 47.8 µM
SK-MEL-28 melanoma
  GI50: 21.9 µM
  TGI: 61.2 µM
SN12C renal
  GI50: 62.9 µM
  TGI: > 100 µM
HCT-116 colon
  GI50: 11.9 µM
  TGI: 31.4 µM
UACC-257 melanoma
  GI50: 66.2 µM
  TGI: > 100 µM
786-0 renal
  GI50: 18.5 µM
  TGI: 45.9 µM
HCC-2998 colon
  GI50: 15.5 µM
  TGI: 30 µM
MDA-MB-468 breast
  GI50: 15 µM
  TGI: 32.3 µM
LOX IMVI melanoma
  GI50: 11.4 µM
  TGI: 25.4 µM
KM12 colon
  GI50: 13.5 µM
  TGI: 65.9 µM
SR leukemia
  GI50: 4.68 µM
  TGI: > 100 µM
T-47D breast
  GI50: 29.2 µM
  TGI: > 100 µM
IGROV1 ovarian
  GI50: 21.9 µM
  TGI: 66.6 µM
RPMI-8226 leukemia
  GI50: 3.09 µM
  TGI: 10.8 µM
MOLT-4 leukemia
  GI50: 21.9 µM
  TGI: > 100 µM
OVCAR-8 ovarian
  GI50: 34.4 µM
  TGI: > 100 µM
K-562 leukemia
  GI50: 8.34 µM
  TGI: 78.8 µM
MALME-3M melanoma
  GI50: 69.4 µM
  TGI: > 100 µM
BT-549 breast
  GI50: 18.4 µM
  TGI: 46.4 µM
NCI-H23 lung
  GI50: 20.5 µM
  TGI: 57.1 µM
SF-295 CNS
  GI50: 32.7 µM
  TGI: > 100 µM
SK-MEL-2 melanoma
  GI50: 81.3 µM
  TGI: > 100 µM
SF-268 CNS
  GI50: 37.7 µM
  TGI: > 100 µM
NCI-H522 lung
  GI50: 27.5 µM
  TGI: > 100 µM
SK-MEL-5 melanoma
  GI50: 31.7 µM
  TGI: > 100 µM
PC-3 prostate
  GI50: 27.1 µM
  TGI: > 100 µM
